Publication PMC11470957, “Principles of paralog-specific targeted protein degradation engaging the C-degron E3 KLHDC2” (Nature Communications, 2024)
Where “and” joins values, the source holds several entries; their conditions need not be identical. Equal entries are not always repeated. Entries after “also recorded” stand apart in the source; their conditions may differ.

Tests used:
[1] = biological target: H346A/R347A KLHDC2^SBD / BRD3^BD2 (Homo sapiens, UniProt Q15059+Q9Y2U9, H346A/R347A); test: ITC, ternary complex H346A/R347A KLHDC2^SBD with PROTAC-BRD3^BD2
[2] = Measurement of SJ46421 cellular concentration by LC-MS/MS; type: in vitro ADME; settings: SKBR3, from LC-MS-MS of lysates
neddylated CRL2^KLHDC2 = neddylated CRL2^KLHDC2 (Homo sapiens, UniProt Q9Y2U9, G405K/S406K); test: biochemical
[3] = biological target: R56A KLHDC2^SBD / BRD3^BD2 (Homo sapiens, UniProt Q15059+Q9Y2U9, R56A); test: ITC, ternary complex R56A KLHDC2^SBD with PROTAC-BRD3^BD2
[4] = biological target: neddylated CRL2^KLHDC2 (tetrameric KLHDC2-EloB/C) (Homo sapiens, UniProt Q15059+Q9Y2U9); test: Ubiquitylation assay monitoring disruption of the KLHDC2-EloBC tetrameric assembly
[5] = biological target: KLHDC2^SBD / G382E BRD2^BD2 (Homo sapiens, UniProt P25440+Q9Y2U9, G382E); test: ITC, ternary complex KLHDC2^SBD with PROTAC-G382E BRD2^BD2
KLHDC2^SBD / BRD2^BD2 = KLHDC2^SBD / BRD2^BD2 (Homo sapiens, UniProt P25440+Q9Y2U9); test: ITC, ternary complex KLHDC2^SBD with PROTAC-BRD2^BD2
KLHDC2 = biological target: T1, KLHDC2 (Homo sapiens, UniProt Q9Y2U9); test: Western blot of KLHDC2 levels after cellular dosing
T1 sequence (Q9Y2U9 1-406): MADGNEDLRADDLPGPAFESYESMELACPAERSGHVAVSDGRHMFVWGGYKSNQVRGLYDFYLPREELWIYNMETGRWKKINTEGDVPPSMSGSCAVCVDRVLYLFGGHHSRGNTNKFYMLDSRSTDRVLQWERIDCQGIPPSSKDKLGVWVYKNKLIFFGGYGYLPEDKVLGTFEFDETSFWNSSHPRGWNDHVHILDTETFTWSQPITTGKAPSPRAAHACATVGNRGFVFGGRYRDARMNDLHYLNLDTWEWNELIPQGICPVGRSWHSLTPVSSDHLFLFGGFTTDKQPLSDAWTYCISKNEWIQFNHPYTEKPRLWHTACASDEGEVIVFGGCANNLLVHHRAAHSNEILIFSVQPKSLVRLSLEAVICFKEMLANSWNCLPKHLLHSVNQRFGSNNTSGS

KLHDC2^SBD / BRD4^BD2 = KLHDC2^SBD / BRD4^BD2 (Homo sapiens, UniProt O60885+Q9Y2U9); test: ITC, ternary complex KLHDC2^SBD with PROTAC-BRD4^BD2
[6] = ITC source data Fig4f, N=1, syringe H346A/R347A KLHDC2, cell SJ46421-BRD3BD2
[7] = ITC, syringe H346A/R347A KLHDC2, cell compound-BRD3BD2, N=1
[8] = cell: SJ46421-BRD3^BD2, syringe: H346A/R347A KLHDC2^SBD, n=1
[9] = cell: SJ46421-BRD3^BD2, syringe: R56A KLHDC2^SBD
[10] = cell: SJ46421-G382E BRD2^BD2, syringe: KLHDC2^SBD
[11] = ITC, syringe KLHDC2, cell BRD2BD2-compound, Rep1, Rep2
[12] = cell: PROTAC-BRD2^BD2, syringe: KLHDC2^SBD
[13] = cell: PROTAC-BRD4^BD2, syringe: KLHDC2^SBD

Sequence of R56A KLHDC2^SBD / BRD3^BD2 (Q9Y2U9 15-361 R56A): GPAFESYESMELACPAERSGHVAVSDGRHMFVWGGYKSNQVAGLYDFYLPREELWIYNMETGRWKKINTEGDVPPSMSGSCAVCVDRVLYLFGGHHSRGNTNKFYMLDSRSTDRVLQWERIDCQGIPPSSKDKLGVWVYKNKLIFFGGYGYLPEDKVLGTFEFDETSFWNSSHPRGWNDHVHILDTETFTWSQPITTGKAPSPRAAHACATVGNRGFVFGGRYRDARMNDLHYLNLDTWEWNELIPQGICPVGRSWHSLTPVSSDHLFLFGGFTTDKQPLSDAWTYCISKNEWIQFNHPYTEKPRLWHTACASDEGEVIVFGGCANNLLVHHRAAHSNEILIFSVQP
Sequence of R56A KLHDC2^SBD / BRD3^BD2 (Q15059 306-416): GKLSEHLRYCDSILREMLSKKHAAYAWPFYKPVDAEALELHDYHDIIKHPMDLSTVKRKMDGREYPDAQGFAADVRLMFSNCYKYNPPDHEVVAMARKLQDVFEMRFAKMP
Sequence of KLHDC2^SBD / BRD2^BD2 (P25440 344-455, one chain of several): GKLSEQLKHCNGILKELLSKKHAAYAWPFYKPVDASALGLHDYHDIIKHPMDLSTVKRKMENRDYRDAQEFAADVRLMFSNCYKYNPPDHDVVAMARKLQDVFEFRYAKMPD
Sequence of KLHDC2^SBD / G382E BRD2^BD2 (P25440 344-455 G382E, one chain of several): as the sequence (P25440 344-455, one chain of several) above, with G39E counted along it
Sequence of H346A/R347A KLHDC2^SBD / BRD3^BD2 (Q9Y2U9 15-361 H346A/R347A): as the sequence (Q9Y2U9 15-361 R56A) above, with A42R, H332A, R333A counted along it
Sequence of H346A/R347A KLHDC2^SBD / BRD3^BD2 (Q15059 306-416, stated change not applied): as the sequence (Q15059 306-416) above

Cc1sc2c(c1C)C(c1ccc(Cl)cc1)=N[C@@H](CC(=O)N1CCN(CCOc3cccc4ccc(-c5nc(CC(=O)NCC(=O)O)cs5)cc34)CC1)c1nnc(C)n1-2 [SJ46421]
Kd [1]: 50.9 nM
cooperativity α ([1]; H346A/R347A KLHDC2^SBD, estimated from the binding affinity of SJ46421 to WT KLHDC2): 6.0
(-)TDS, Rep1 [1, 6]: -7.83
DG, Rep1 [1, 6]: -10.2
DH, Rep1 [1, 6]: -2.36
(-)TDS [1, 7]: -7.83
DG [1, 7]: -10.2
DH [1, 7]: -2.36
ITC -TΔS (ternary) [1, 8]: -7.83 kcal/mol-1
ITC N (ternary) [1, 8]: 0.9
ITC ΔG (ternary) [1, 8]: -10.2 kcal/mol-1
ITC ΔH (ternary) [1, 8]: -2.36 kcal/mol-1
cellular permeability [2]: poor cellular permeability; also recorded: poor permeability properties
IC50 (neddylated CRL2^KLHDC2): 2600 nM
cooperativity α ([3]; BRD3^BD2, R56A KLHDC2^SBD): 1.7
Kd ([3]; Kd, Rep1/Rep2, ITC source data Fig4f, syringe R56A KLHDC2, cell SJ46421-BRD3BD2): 291 nM and 255 nM
ITC -TΔS (ternary) [3, 9]: -5.02 +/- 0.31 kcal/mol-1
ITC N (ternary) [3, 9]: 1.1
ITC ΔG (ternary) [3, 9]: -9.19 +/- 0.03 kcal/mol-1
ITC ΔH (ternary) [3, 9]: -3.68 +/- 0.03 kcal/mol-1
KLHDC2~UB level, Rep1/Rep2 ([4]; Monomer, + BRD3-SJ46421, pre-incubation 0): 0.5851 and 0.3857
KLHDC2~UB level, Rep1/Rep2 ([4]; Tetramer, + BRD3-SJ46421, pre-incubation 0): 67.2962 and 61.2938
KLHDC2~UB level, Rep1/Rep2 ([4]; Tetramer, + BRD3-SJ46421, pre-incubation 2): 32.2274 and 23.9384
KLHDC2~UB level, Rep1/Rep2 ([4]; Tetramer, + BRD3-SJ46421, pre-incubation 5): 1.6168 and 2.133
cooperativity α ([5]; G382E BRD2^BD2, KLHDC2^SBD): 3.2
(-)TDS ([5]; ITC, syringe KLHDC2, cell compound-G382EBRD2BD2, Rep1, Rep2): 0.62 and 0.68
Kd ([5]; Kd, Rep1/Rep2, ITC source data Fig4f, syringe KLHDC2, cell SJ46421-G382EBRD2BD2): 103 nM and 88.1 nM
ITC -TΔS (ternary) [5, 10]: 0.65 +/- 0.07 kcal/mol-1
ITC N (ternary) [5, 10]: 0.9
ITC ΔG (ternary) [5, 10]: -9.80 +/- 0.02 kcal/mol-1
ITC ΔH (ternary) [5, 10]: -10.5 +/- 0.11 kcal/mol-1
ΔG (binary + ternary) (KLHDC2^SBD / BRD2^BD2; BRD2^BD2): -18.4 kcal/mol
(-)TDS (KLHDC2^SBD / BRD2^BD2; [11]): 1.18 and 0.97
DH (KLHDC2^SBD / BRD2^BD2; [11]): -10.5
ITC -TΔS (ternary) (KLHDC2^SBD / BRD2^BD2; [12]): 1.08 +/- 0.19 kcal/mol-1
ITC N (ternary) (KLHDC2^SBD / BRD2^BD2; [12]): 0.9
ITC ΔG (ternary) (KLHDC2^SBD / BRD2^BD2; [12]): -9.33 +/- 0.05 kcal/mol-1
ITC ΔH (ternary) (KLHDC2^SBD / BRD2^BD2; [12]): -10.4 +/- 0.10 kcal/mol-1
KLHDC2 level, Western blot quantification (KLHDC2; Fig 6b, KO/Rescue, 5 uM, DMSO printed 0): 0
KLHDC2 level, Western blot quantification (DMSO = 100) (KLHDC2; Fig 6b, U2OS, 5 uM): 103.737 and 122.001
KLHDC2 level, Western blot quantification (DMSO = 100) (KLHDC2; Fig S6a, 293T cells, 2.5 uM): 109.414 and 102
KLHDC2 level, Western blot quantification (DMSO = 100) (KLHDC2; Fig S6a, 293T cells, 5 uM): 112.068 and 103
KLHDC2 level, Western blot quantification (DMSO = 100) (KLHDC2; Fig S6b, MDA-MB468 Cells, 10 uM): 128.202 and 120
cooperativity α (KLHDC2^SBD / BRD4^BD2; BRD4^BD2, KLHDC2^SBD): 2.8
ITC -TΔS (ternary) (KLHDC2^SBD / BRD4^BD2; [13]): -1.51 +/- 0.11 kcal/mol-1
ITC N (ternary) (KLHDC2^SBD / BRD4^BD2; [13]): 0.8
ITC ΔG (ternary) (KLHDC2^SBD / BRD4^BD2; [13]): -9.72 +/- 0.04 kcal/mol-1
ITC ΔH (ternary) (KLHDC2^SBD / BRD4^BD2; [13]): -8.22 +/- 0.09 kcal/mol-1
